The source of these data is patent US20240228488A1 (TAKEDA PHARMACEUTICAL COMPANY LIMITED, priority 2021, published 2024).

For this experiment, the target named is human activated kallikrein enzyme (Homo sapiens, UniProt P03952). Kind of experiment: Plasma kallikrein inhibition, fluorogenic PFR-AMC substrate, 500 pM activated kallikrein format. The following applies: 500 pM activated kallikrein, 300 uM PFR-AMC, 30 min preincubation, 10 min reaction; read-out: Primary Dose Response Assay: Average EC50. In kind it is biochemical. The method, boiled down: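 Enzyme (500 pM) was preincubated with inhibitor for 30 min at room temperature in 20 mM Tris pH 7.5, 1 mM EDTA, 150 mM NaCl, 0.1% PEG-400 and 0.1% Triton X-100. The reaction was started with 300 uM PFR-AMC, run 10 min, and fluorescence read at 460 nm (380 nm excitation). EC50 derived.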
Chain of human activated kallikrein enzyme (P03952 391-638 limits assumed): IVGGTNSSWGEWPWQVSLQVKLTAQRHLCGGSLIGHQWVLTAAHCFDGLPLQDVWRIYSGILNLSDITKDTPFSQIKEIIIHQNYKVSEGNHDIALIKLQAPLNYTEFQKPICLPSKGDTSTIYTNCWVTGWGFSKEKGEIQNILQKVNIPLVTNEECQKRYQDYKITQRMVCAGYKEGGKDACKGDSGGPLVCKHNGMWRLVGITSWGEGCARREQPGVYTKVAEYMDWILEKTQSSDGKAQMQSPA
Chain of human activated kallikrein enzyme (P03952 20-390 partner limits assumed): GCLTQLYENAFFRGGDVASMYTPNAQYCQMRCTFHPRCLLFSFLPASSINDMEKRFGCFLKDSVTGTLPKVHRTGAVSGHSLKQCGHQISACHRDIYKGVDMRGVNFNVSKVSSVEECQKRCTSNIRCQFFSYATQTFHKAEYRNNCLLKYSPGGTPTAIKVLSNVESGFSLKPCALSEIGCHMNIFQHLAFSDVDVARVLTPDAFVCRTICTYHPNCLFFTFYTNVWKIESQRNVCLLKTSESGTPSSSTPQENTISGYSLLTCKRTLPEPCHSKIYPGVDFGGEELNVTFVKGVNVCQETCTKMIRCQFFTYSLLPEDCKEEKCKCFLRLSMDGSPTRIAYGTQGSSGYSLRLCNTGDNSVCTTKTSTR
Broadly, the EC50 is the concentration at which the effect is half-maximal. With `O=C(Nc1cc(NCc2cn3cc(C4CC4)ccc3n2)ccn1)[C@@H]1C[C@]12C(=O)Nc1ccc(Cl)cc12` (racemic) [Example 514, rac-(1R*,2S*)-5′-chloro-N-(4-(((6-cyclopropylimidazo[1,2-a]pyridin-2-yl)methyl)amino)pyridin-2-yl)-2′-oxospiro[cyclopropane-1,3′-indoline]-2-carboxamide], the 50% effective concentration (EC50) was in the range of 10 to 100 nM.
Consider `Cc1ccnc([C@H]2C[C@]2(F)C(=O)Nc2cc(N[C@H](C)c3cn4cc(C5CC5)cc(N5CC(=O)N(C)C5=O)c4n3)nc(C)n2)n1` (racemic) [Example 528, rac-(1S*,2S*)-N-(6-(((R)-1-(6-cyclopropyl-8-(3-methyl-2,4-dioxoimidazolidin-1-yl)imidazo[1,2-a]pyridin-2-yl)ethyl)amino)-2-methylpyrimidin-4-yl)-1-fluoro-2-(4-methylpyrimidin-2-yl)cyclopropane-1-carboxamide], for which the EC50 lay in the range of 1 to 10 nM.
For `N#Cc1cc(C2CC2)cn2cc(COc3ccnc(NC(=O)[C@H]4C[C@@H]4c4cccc(Cl)c4)c3)nc12` (racemic) [Example 567, rac-(1S*,2S*)-2-(3-chlorophenyl)-N-(4-((8-cyano-6-cyclopropylimidazo[1,2-a]pyridin-2-yl)methoxy)pyridin-2-yl)cyclopropane-1-carboxamide], the EC50 lay within 10 to 100 nM.
For the molecule `NCc1cc(C2CC2)cn2cc(COc3ccnc(NC(=O)[C@H]4C[C@@H]4c4cccc(Cl)c4)c3)nc12` (racemic) [Example 572, rac-(1S*,2S*)—N-(4-((8-(aminomethyl)-6-cyclopropylimidazo[1,2-a]pyridin-2-yl)methoxy)pyridin-2-yl)-2(3-chlorophenyl)cyclopropane-1-carboxamide], the EC50 fell in the range of 1 to 10 nM.
`Cc1ccnc([C@H]2C[C@@H]2C(=O)Nc2nccc3nn(Cc4cn5cc(C6CC6)cc(N6CC(=O)N(C)C6=O)c5n4)cc23)n1` (racemic) [Example 576, rac-(1S*,2S*)—N-(2-((6-cyclopropyl-8-(3-methyl-2,4-dioxoimidazolidin-1-yl)imidazo[1,2-a]pyridin-2-yl)methyl)-2H-pyrazolo[4,3-c]pyridin-4-yl)-2-(4-methylpyrimidin-2-yl)cyclopropane-1-carboxamide]: the EC50 is under 1 nM.
Regarding `O=C(Nc1nccc2nn(Cc3cn4cc(C5CC5)ccc4n3)cc12)[C@H]1C[C@@H]1c1cc(Cl)ccc1[N+](=O)[O-]` (racemic) [Example 578, rac-(1S*,2S*)-2-(5-chloro-2-nitrophenyl)-N-(2-((6-cyclopropylimidazo[1,2-a]pyridin-2-yl)methyl)-2H-pyrazolo[4,3-c]pyridin-4-yl)cyclopropane-1-carboxamide], the concentration giving a half-maximal response (EC50) lay within 1 to 10 nM.
With `N#Cc1ccc(Cl)cc1[C@H]1C[C@@H]1C(=O)Nc1nccc2nn(Cc3cn4cc(C5CC5)ccc4n3)cc12` (racemic) [Example 579, rac-(1S*,2S*)-2-(5-chloro-2-cyanophenyl)-N-(2-((6-cyclopropylimidazo[1,2-a]pyridin-2-yl)methyl)-2H-pyrazolo[4,3-c]pyridin-4-yl)cyclopropane-1-carboxamide], the half-maximal effective concentration (EC50) was under 1 nM.
Next, `Nc1ccc(Cl)cc1[C@H]1C[C@@H]1C(=O)Nc1nccc2nn(Cc3cn4cc(C5CC5)ccc4n3)cc12` (racemic) [Example 585, rac-(1S*,2S*)-2-(2-amino-5-chlorophenyl)-N-(2-((6-cyclopropylimidazo[1,2-a]pyridin-2-yl)methyl)-2H-pyrazolo[4,3-c]pyridin-4-yl)cyclopropane-1-carboxamide]: 10 to 100 nM.
`O=C(Nc1nccc2nn(Cc3cn4cc(C5CC5)ccc4n3)cc12)[C@H]1C[C@@H]1c1cc(Cl)ccc1-n1cnnn1` (racemic) [Example 586, rac-(1S*,2S*)-2-(5-chloro-2-(1H-tetrazol-1-yl)phenyl)-N-(2-((6-cyclopropylimidazo[1,2-a]pyridin-2-yl)methyl)-2H-pyrazolo[4,3-c]pyridin-4-yl)cyclopropane-1-carboxamide]: the EC50 is under 1 nM.
Take `O=C(Nc1cc(Cc2cn3cc(C4CC4)ccc3n2)ncn1)[C@H]1C[C@@H]1c1cccc(Cl)c1` (racemic) [Example 587, rac-(1S*,2S*)-2-(3-chlorophenyl)-N-(6-((6-cyclopropylimidazo[1,2-a]pyridin-2-yl)methyl)pyrimidin-4-yl)cyclopropane-1-carboxamide]: the 50% effective concentration (EC50) lay within 100 to 1000 nM.
The value for `O=C(NCc1cn(Cc2cn3cc(C4CC4)ccc3n2)nn1)[C@H]1C[C@@H]1c1cccc(Cl)c1` (racemic) [Example 588, rac-(1S*,2S*)-2-(3-chlorophenyl)-N-((1-((6-cyclopropylimidazo[1,2-a]pyridin-2-yl)methyl)-1H-1,2,3-triazol-4-yl)methyl)cyclopropane-1-carboxamide] was 10 to 100 nM.
The value for `O=C(Nc1nccc2cn(Cc3cn4cc(C5CC5)ccc4n3)nc12)[C@H]1C[C@@H]1c1cccc(Cl)c1` (racemic) [Example 592, rac-(1S*,2S*)-2-(3-chlorophenyl)-N-(2-((6-cyclopropylimidazo[1,2-a]pyridin-2-yl)methyl)-2H-pyrazolo[3,4-c]pyridin-7-yl)cyclopropane-1-carboxamide] was 1 to 10 nM.
With `O=C(Nc1cn(Cc2cn3cc(C4CC4)ccc3n2)nn1)[C@H]1C[C@@H]1c1cccc(Cl)c1` (racemic) [Example 593, rac-(1S*,2S*)-2-(3-chlorophenyl)-N-(1-((6-cyclopropylimidazo[1,2-a]pyridin-2-yl)methyl)-1H-1,2,3-triazol-4-yl)cyclopropane-1-carboxamide], the EC50 is over 6000 nM.
With `O=C(Nc1cc2c(cn1)ncn2Cc1cn2cc(C3CC3)ccc2n1)[C@H]1C[C@@H]1c1cccc(Cl)c1` (racemic) [Example 594, rac-(1S*,2S*)-2-(3-chlorophenyl)-N-(1-((6-cyclopropylimidazo[1,2-a]pyridin-2-yl)methyl)-1H-imidazo[4,5-c]pyridin-6-yl)cyclopropane-1-carboxamide], the EC50 fell in the range of 10 to 100 nM.
`Cc1ccnc([C@H]2C[C@@H]2C(=O)Nc2cc(NCc3cn4cc(C5CC5)ccc4n3)ccc2S(C)(=O)=O)n1` (racemic) [Example 619, rac-(1S*,2S*)—N-(5-(((6-cyclopropylimidazo[1,2-a]pyridin-2-yl)methyl)amino)-2-(methylsulfonyl)phenyl)-2-(4-methylpyrimidin-2-yl)cyclopropane-1-carboxamide]: the half-maximal effective concentration (EC50) is 1000 to 6000 nM.
Turning to `Cc1ccnc([C@H]2C[C@@H]2C(=O)Nc2cc(NCc3cn4cc(C5CC5)cc(N5CC(=O)N(C)C5=O)c4n3)n3ncnc3n2)n1` (racemic) [Example 624, rac-(1S*,2S*)—N-(7-(((6-cyclopropyl-8-(3-methyl-2,4-dioxoimidazolidin-1-yl)imidazo[1,2-a]pyridin-2-yl)methyl)amino)-[1,2,4]triazolo[1,5-a]pyrimidin-5-yl)-2-(4-methylpyrimidin-2-yl)cyclopropane-1-carboxamide], the half-maximal effective concentration (EC50) was under 1 nM.
Turning to `Cc1ccnc([C@H]2C[C@@H]2C(=O)Nc2ncc3oc(=O)n(Cc4cn5cc(C6CC6)cc(N6CC(=O)N(C)C6=O)c5n4)c3n2)n1` (racemic) [Example 626, rac-(1S*,2S*)—N-(3-((6-cyclopropyl-8-(3-methyl-2,4-dioxoimidazolidin-1-yl)imidazo[1,2-a]pyridin-2-yl)methyl)-2-oxo-2,3-dihydrooxazolo[4,5-d]pyrimidin-5-yl)-2-(4-methylpyrimidin-2-yl)cyclopropane-1-carboxamide], the EC50 is under 1 nM.
In the case of `Cc1ccnc([C@H]2C[C@@H]2C(=O)Nc2ncnc3nn(Cc4cn5cc(C6CC6)cc(N6CC(=O)N(C)C6=O)c5n4)cc23)n1` (racemic) [Example 632, rac-(1S*,2S*)—N-(2-((6-cyclopropyl-8-(3-methyl-2,4-dioxoimidazolidin-1-yl)imidazo[1,2-a]pyridin-2-yl)methyl)-2H-pyrazolo[3,4-d]pyrimidin-4-yl)-2-(4-methylpyrimidin-2-yl)cyclo propane-1-carboxamide], the EC50 is under 1 nM.
Next, `O=C(Nc1cc(NCc2cn3cc(C4CC4)cc(N4CCN(CC(F)(F)F)CC4)c3n2)ccn1)[C@H]1C[C@@H]1c1cccc(Cl)c1` (racemic) [Example I-20]: 1 to 10 nM; `CN1C(=O)CN(c2cc(C3CC3)cn3cc(CNc4cc(NC(=O)[C@H]5C[C@@H]5c5nccc(C(F)(F)F)n5)ncn4)nc23)C1=O` (racemic) [Example I-165, rac-(1S*,2S*)-N-(6-(((6-cyclopropyl-8-(3-methyl-2,4-dioxoimidazolidin-1-yl)imidazo[1,2-a]pyridin-2-yl)methyl)amino)pyrimidin-4-yl)-2-(4-(trifluoromethyl)pyrimidin-2-yl)cyclopropane-1-carboxamide]: 1 to 10 nM.
As to `O=C(Nc1cc(NCc2cn3cc(C4CC4)ccc3n2)ncn1)[C@H]1C[C@@H]1c1cc(Cl)ncn1` (racemic) [Example I-176, rac-(1S*,2S*)-2-(6-chloropyrimidin-4-yl)-N-(6-(((6-cyclopropylimidazo[1,2-a]pyridin-2-yl)methyl)amino)pyrimidin-4-yl)cyclopropane-1-carboxamide], the EC50 is 100 to 1000 nM.
`O=C(Nc1cc(NCc2cn3cc(C4CC4)ccc3n2)ncn1)[C@H]1C[C@@H]1c1nccc(Cl)n1` (racemic) [Example I-177, rac-(1S*,2S*)-2-(4-chloropyrimidin-2-yl)-N-(6-(((6-cyclopropylimidazo[1,2-a]pyridin-2-yl)methyl)amino)pyrimidin-4-yl)cyclopropane-1-carboxamide]: the EC50 is under 1 nM.
Turning to `O=C(Nc1cc(NCc2cn3cc(C4CC4)ccc3n2)ncn1)[C@H]1C[C@@H]1c1cc(Cl)cnn1` (racemic) [Example I-178, rac-(1S*,2S*)-2-(5-chloropyridazin-3-yl)-N-(6-(((6-cyclopropylimidazo[1,2-a]pyridin-2-yl)methyl)amino)pyrimidin-4-yl)cyclopropane-1-carboxamide], the EC50 lay within 100 to 1000 nM.
